Measurements reported in patent US20120029054A1, “RNA Interference Mediated Inhibition of GATA Binding Protein 3 (GATA3) Gene Expression Using Short Intefering Nucleic Acid (siNA)” (Merck Sharp & Dohme Corp., priority 2009, published 2012).
[invAb] = inverted abasic unit; m = 2'-O-methyl; r = 2'-OH (RNA); f = 2'-fluoro

Legend:
GATA3 mRNA [1] = assay: GATA3 mRNA knock-down (Taqman qRT-PCR) after RNAiMax transfection of mouse RAG cells; type: cell-based; conditions: 10 nM siNA, 24 hrs, average of 2 experiments
Description: RAG (murine; ATCC cat# CCL-142): Cells were cultured at 37° C. in the presence of 5% CO2 and grown in Eagle's Minimum Essential medium with supplemented with 10% of fetal bovine serum, 100 μg/mL of streptomycin, and 100 U/mL penicillin.
(§1) Cells were plated in all wells of a tissue-culture treated, 96-well plate at a final count of 5000 cells/well in 100 μL of the appropriate culture media. The cells were cultured for 24 hours after plating at 37° C. in the presence of 5% CO2.
(§2) After 24 hours, complexes containing siNA and RNAiMax were created as follows: A solution of RNAiMax diluted 33-fold in OPTI-MEM was prepared. In parallel, solutions of the siNAs for testing were prepared to a final concentration of 120 nM in OPTI-MEM. After incubation of RNAiMax/OPTI-MEM solution at room temperature for 5 min, an equal volume of the siNA solution and the RNAiMax solution were added together for each of the siNAs.
(§3) This solution was incubated at room temperature for 20 minutes. After incubation, 20 uL of the solution was added to each of the relevant wells. The final concentration of siNA in each well was 10 nM and the final volume of RNAiMax in each well was 0.3 ul.
(§4) The time of incubation with the RNAiMax-siNA complexes was 24 hours and there was no change in media between transfection and harvesting, unless otherwise indicated.
(§5) RNA was extracted from a 96-well plate using the TaqMan® Gene Expression Cells-to-CT™ Kit (Cat#4399002) with a modified protocol. Briefly, a 60 uL (1 plate) or 110 uL (2 plates) of the Lysis Solution with DNase I was dispensed into each well of the Lysis Buffer Plate (twin.tec full skirt plate). The lysis buffer and stop plates were stored at 4° C. until the cells were washed.
(§6) The plate was spun at 1100 rpm for 5 minutes. The culture medium was aspirated and discarded from the wells of the culture plate. The lysis was performed automatically using a BioMek FX instrument and method. After the Biomek method was completed, the lysis plate was incubated for 2 min. at room temperature. The lysis plate can be stored for 2 hours at 4° C., or at −20° C. or −80° C. for two months.
(§7) Each well of the reverse transcription plate required 10 uL of 2× reverse transcriptase Buffer, 1 uL of 20× reverse transcription enzyme and 2 uL of nuclease-free water. The reverse transcription master mix was prepared by mixing 2× reverse transcription buffer, 20× reverse transcription enzyme mix, and nuclease-free water. 13 uL of the reverse transcription master mix was dispensed into each well of the reverse transcription plate (semi-skirted). A separate reverse transcription plate was prepared for each cell plate. The plate was loaded onto a Biomek NX or Biomek FX Dual-96 and the Biomek method was run. The program is programmed to automatically added 7 uL of lysate from the cell lysis procedure described above into each well of the reverse transcription plate. The plate is sealed and spun on a centrifuge (1000 rpm for 30 seconds) to settle the contents to the bottom of the reverse transcription plate. The plate is placed in a thermocycler at 37° C. for 60 min, 95° C. for 5 min, and 4° C. until the plate is removed from the thermocycler. Upon removal, if not used immediately, the plate was frozen at −20° C.
(§8) A series of probes and primers were used to detect the various mRNA transcripts of the genes of β-Actin (human cell line only), and of GATA3 and GAPDH in mouse and human cell lines. All Taqman probes and primers for the experiments here-in described were supplied as pre-validated sets by Applied Biosystems, Inc. (see Table 2).
(§9) The assays were performed on an ABI 7900 instrument, according to the manufacturer's instructions. A TaqMan Gene Expression Master Mix (provided in the Cells-to-CT™, Applied Biosystems, Cat #4399002) was used. The PCR reactions were carried out at 50° C. for 2 min, 95° C. for 20 min followed by 40 cycles at 95° C. for 15 secs and 60° C. for 1 min. […]

GATA3 mRNA [2] = assay: GATA3 mRNA knock-down (Taqman qRT-PCR) after RNAiMax transfection of human MCF7 cells; screen and IC50 dose response; type: cell-based; conditions: 10 nM siNA, MCF7 cells, 24 hrs
Description: MCF7 (human; ATCC cat# HTB-22): Cells were cultured at 37° C. in the presence of 5% CO2 and grown in Eagle's Minimum Essential medium with supplemented with fetal bovine serum at a final concentration of 10% and 100 μg/mL of streptomycin and 100 U/mL penicillin.
as §1, §2, §3, §4, §5, §6, §7, §8, §9

Substance | % KD Mouse (GATA3 mRNA [1]) [%] | % KD Human (GATA3 mRNA [2]; * Hs00231122_m1 Taqman Assay) | % KD Human (GATA3 mRNA [2]; ** Hs00922328_m1 Taqman Assay) | % KD Human (GATA3 mRNA [2]; average of 3 experiments) [%]
30272-DC: GATA3 siNA duplex, mouse site 807: sense B GAGGuAuccuccGAcccAc TTB (SEQ 97), antisense GUGGGucGGAGGAuAccucUU (SEQ 98) (sense GAGGUAUCCUCCGACCCACTT; antisense GUGGGUCGGAGGAUACCUCUU; chemistry not fully specified) | 85 ± 0 | 69 ± 3* % | 33 ± 19** % | –
30273-DC: GATA3 siNA duplex, mouse site 1489: sense B cuuAucAAGcccAAGcGAA TTB (SEQ 99), antisense UUCGcuuGGGcuuGAuAAGUU (SEQ 100) (sense CUUAUCAAGCCCAAGCGAATT; antisense UUCGCUUGGGCUUGAUAAGUU; sense: DNA at AGT, 2'-fluoro at CU, [invAb] at 5' end, 3' end, backbone not given here; antisense: chemistry not given here) | 33 ± 1 | – | – | −3 ± 16
30274-DC: GATA3 siNA duplex, mouse site 704: sense B cucAGuAuccGcuGAcGGA TTB (SEQ 101), antisense UCCGucAGcGGAuAcuGAGUU (SEQ 102) (sense CUCAGUAUCCGCUGACGGATT; antisense UCCGUCAGCGGAUACUGAGUU; sense: DNA at AGT, 2'-fluoro at CU, [invAb] at 5' end, 3' end, backbone not given here; antisense: sugars from the 5' end rrrmffmmfmmmfmffmmmmm, backbone not given here) | −2 ± 4 | – | – | 0 ± 13
30275-DC: GATA3 siNA duplex, mouse site 794: sense B GGGcuAcGGuGcAGAGGuA TTB (SEQ 103), antisense UACcucuGcAccGuAGcccUU (SEQ 104) (sense GGGCUACGGUGCAGAGGUATT; antisense UACCUCUGCACCGUAGCCCUU; sense: DNA at AGT, 2'-fluoro at CU, [invAb] at 5' end, 3' end, backbone not given here; antisense: sugars from the 5' end rrrffffmfmffmfmmfffmm, backbone not given here) | 49 ± 7 | – | – | 42 ± 8
30276-DC: GATA3 siNA duplex, mouse site 678: sense B GGGccucGGccAuucGuAc TTB (SEQ 105), antisense GUAcGAAuGGccGAGGcccUU (SEQ 106) (sense GGGCCUCGGCCAUUCGUACTT; antisense GUACGAAUGGCCGAGGCCCUU; sense: DNA at AGT, 2'-fluoro at CU, [invAb] at 5' end, 3' end, backbone not given here; antisense: sugars from the 5' end rrrfmmmfmmffmmmmfffmm, backbone not given here) | −2 ± 6 | – | – | −12 ± 16
30277-DC: GATA3 siNA duplex, mouse site 1535: sense B cAuccuGcGcGAAcuGucA TTB (SEQ 107), antisense UGAcAGuucGcGcAGGAuGUU (SEQ 108) (sense CAUCCUGCGCGAACUGUCATT; antisense UGACAGUUCGCGCAGGAUGUU; sense: DNA at AGT, 2'-fluoro at CU, [invAb] at 5' end, 3' end, backbone not given here; antisense: sugars from the 5' end rrrfmmfffmfmfmmmmfmmm, backbone not given here) | 26 ± 4 | – | – | −4 ± 7
30278-DC: GATA3 siNA duplex, mouse site 720: sense B GGAAGAGGuGGAcGuAcuu TTB (SEQ 109), antisense AAGuAcGuCCAccucuuccUU (SEQ 110) (sense GGAAGAGGUGGACGUACUUTT; antisense AAGUACGUCCACCUCUUCCUU; sense: DNA at AGT, 2'-fluoro at CU, [invAb] at 5' end, 3' end, backbone not given here; antisense: chemistry not given here) | 60 ± 2 | – | – | −18 ± 5
30279-DC: GATA3 siNA duplex, mouse site 1448: sense B ccuGcGGAcucuAccAuAA TTB (SEQ 111), antisense UUAuGGuAGAGuccGcAGGUU (SEQ 112) (sense CCUGCGGACUCUACCAUAATT; antisense UUAUGGUAGAGUCCGCAGGUU; sense: DNA at AGT, 2'-fluoro at CU, [invAb] at 5' end, 3' end, backbone not given here; antisense: sugars from the 5' end rrrfmmfmmmmfffmfmmmmm, backbone not given here) | 68 ± 4 | – | – | −27 ± 12
30280-DC: GATA3 siNA duplex, mouse site 1106: sense B ccGGGucGGccAGGcAAGA TTB (SEQ 113), antisense UCUuGccuGGccGAcccGGUU (SEQ 114) (sense CCGGGUCGGCCAGGCAAGATT; antisense UCUUGCCUGGCCGACCCGGUU; sense: DNA at AGT, 2'-fluoro at CU, [invAb] at 5' end, 3' end, backbone not given here; antisense: sugars from the 5' end rrrfmfffmmffmmfffmmmm, backbone not given here) | 1 ± 2 | – | – | −16 ± 12
30281-DC: GATA3 siNA duplex, human/mouse site 904: sense B ccuucuccAAGAcGuccAu TTB (SEQ 115), antisense AUGGAcGucuuGGAGAAGGUU (SEQ 116) (sense CCUUCUCCAAGACGUCCAUTT; antisense AUGGACGUCUUGGAGAAGGUU; sense: DNA at AGT, 2'-fluoro at CU, [invAb] at 5' end, 3' end, backbone not given here; antisense: sugars from the 5' end rrrmmfmffffmmmmmmmmmm, backbone not given here) | 13 ± 3 | – | – | −14 ± 7
30282-DC: GATA3 siNA duplex, human/mouse site 2587: sense B cAccAAAAuAAGAAAAGAu TTB (SEQ 117), antisense AUCuuuucuuAuuuuGGuGUU (SEQ 118) (sense CACCAAAAUAAGAAAAGAUTT; antisense AUCUUUUCUUAUUUUGGUGUU; sense: DNA at AGT, 2'-fluoro at CU, [invAb] at 5' end, 3' end, backbone not given here; antisense: sugars from the 5' end rrrfffffffmffffmmfmmm, backbone not given here) | 84 ± 1 | – | – | 46 ± 8
30283-DC: GATA3 siNA duplex, human/mouse site 3067: sense B GucccuGuAAuuGuuGuuu TTB (SEQ 119), antisense AAAcAAcAAuuAcAGGGAcUU (SEQ 120) (sense GUCCCUGUAAUUGUUGUUUTT; antisense AAACAACAAUUACAGGGACUU; sense: DNA at AGT, 2'-fluoro at CU, [invAb] at 5' end, 3' end, backbone not given here; antisense: sugars from the 5' end rrrfmmfmmffmfmmmmmfmm, backbone not given here) | 47 ± 1 | – | – | 32 ± 5
